Laboratory results taken from the supplement of paper PMC13207355.

Key:
Conditions in all cases: exposure time: 72 h
E21 [1] = patient-derived glioblastoma stem cells of mesenchymal subtype; experiment: phenotypic distance (Euclidean, principal components) from DMSO controls (arbitrary units); higher = stronger morphological change
E31 [2] = patient-derived glioblastoma stem cells of proneural subtype; experiment: as above
E28 [3] = patient-derived glioblastoma stem cells of classical subtype; experiment: as above
FT3469 [4] = normal neural stem cell line; experiment: as above
E13 [5] = patient-derived glioblastoma stem cells of classical subtype; experiment: as above
E34 [6] = patient-derived glioblastoma stem cells of proneural subtype; experiment: as above
E57 [7] = patient-derived glioblastoma stem cells of mesenchymal subtype; experiment: as above
E21 [8] = experiment: surviving fraction (nuclei count normalised to DMSO); higher = more cells surviving (less toxic)
E31 [9] = experiment: as above
E28 [10] = experiment: as above
FT3469 [11] = experiment: as above
E13 [12] = experiment: as above
E34 [13] = experiment: as above
E57 [14] = experiment: as above
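For phenotypic distance (Euclidean, principal components) from DMSO controls in this document: cell Painting imaging in 384-well plates, CellProfiler features reduced to at least 20 principal components, Euclidean distance versus same-plate DMSO vehicle wells (0.1% v/v), median over six images per well.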
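For surviving fraction (nuclei count normalised to DMSO) in this document: nuclei counted by high-content imaging of Hoechst-stained cells in laminin-coated 384-well plates, relative to 0.1% DMSO vehicle wells, with staurosporine as cell-death control.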

Cc1cc(Nc2cc(N3CCN(C)CC3)nc(Sc3ccc(NC(=O)C4CC4)cc3)n2)n[nH]1 [Tozasertib]
Conditions	phenotypic distance	surviving fraction
E13 [5], 4.1 nM	1.12	–
E13 [5], 12.3 nM	0.667	–
E13 [5], 37 nM	1.66	–
E13 [5], 111.1 nM	4.34	–
E13 [5], 333.3 nM	4.49	–
E13 [5], 1000 nM	4.52	–
E13 [5], 3000 nM	4.41	–
E13 [12], 4.1 nM	–	0.866
E13 [12], 12.3 nM	–	0.951
E13 [12], 37 nM	–	0.797
E13 [12], 111.1 nM	–	0.519
E13 [12], 333.3 nM	–	0.467
E13 [12], 1000 nM	–	0.391
E13 [12], 3000 nM	–	0.413
E21 [1], 4.1 nM	1.38	–
E21 [1], 12.3 nM	0.727	–
E21 [1], 37 nM	1.05	–
E21 [1], 111.1 nM	2.02	–
E21 [1], 333.3 nM	5.67	–
E21 [1], 1000 nM	6.71	–
E21 [1], 3000 nM	6.04	–
E21 [8], 4.1 nM	–	0.847
E21 [8], 12.3 nM	–	0.898
E21 [8], 37 nM	–	0.798
E21 [8], 111.1 nM	–	0.743
E21 [8], 333.3 nM	–	0.288
E21 [8], 1000 nM	–	0.215
E21 [8], 3000 nM	–	0.224
E28 [3], 4.1 nM	0.827	–
E28 [3], 12.3 nM	1.02	–
E28 [3], 37 nM	1.05	–
E28 [3], 111.1 nM	2.58	–
E28 [3], 333.3 nM	2.63	–
E28 [3], 1000 nM	2.85	–
E28 [3], 3000 nM	2.36	–
E28 [10], 4.1 nM	–	0.971
E28 [10], 12.3 nM	–	0.855
E28 [10], 37 nM	–	0.81
E28 [10], 111.1 nM	–	0.555
E28 [10], 333.3 nM	–	0.535
E28 [10], 1000 nM	–	0.453
E28 [10], 3000 nM	–	0.482
E31 [2], 4.1 nM	0.87	–
E31 [2], 12.3 nM	0.54	–
E31 [2], 37 nM	1.16	–
E31 [2], 111.1 nM	3.12	–
E31 [2], 333.3 nM	2.58	–
E31 [2], 1000 nM	3.12	–
E31 [2], 3000 nM	2.47	–
E31 [9], 4.1 nM	–	0.944
E31 [9], 12.3 nM	–	0.959
E31 [9], 37 nM	–	0.697
E31 [9], 111.1 nM	–	0.423
E31 [9], 333.3 nM	–	0.404
E31 [9], 1000 nM	–	0.311
E31 [9], 3000 nM	–	0.33
E34 [6], 4.1 nM	1.42	–
E34 [6], 12.3 nM	0.649	–
E34 [6], 37 nM	0.729	–
E34 [6], 111.1 nM	2.85	–
E34 [6], 333.3 nM	2.79	–
E34 [6], 1000 nM	2.34	–
E34 [6], 3000 nM	2.29	–
E34 [13], 4.1 nM	–	0.814
E34 [13], 12.3 nM	–	0.878
E34 [13], 37 nM	–	0.929
E34 [13], 111.1 nM	–	0.744
E34 [13], 333.3 nM	–	0.711
E34 [13], 1000 nM	–	0.728
E34 [13], 3000 nM	–	0.722
E57 [7], 4.1 nM	0.542	–
E57 [7], 12.3 nM	0.685	–
E57 [7], 37 nM	0.782	–
E57 [7], 111.1 nM	4.65	–
E57 [7], 333.3 nM	7.94	–
E57 [7], 1000 nM	8.6	–
E57 [7], 3000 nM	8.14	–
E57 [14], 4.1 nM	–	0.966
E57 [14], 12.3 nM	–	0.942
E57 [14], 37 nM	–	0.963
E57 [14], 111.1 nM	–	0.484
E57 [14], 333.3 nM	–	0.241
E57 [14], 1000 nM	–	0.19
E57 [14], 3000 nM	–	0.197
FT3469 [4], 4.1 nM	0.795	–
FT3469 [4], 12.3 nM	0.771	–
FT3469 [4], 37 nM	0.921	–
FT3469 [4], 111.1 nM	2.37	–
FT3469 [4], 333.3 nM	2.57	–
FT3469 [4], 1000 nM	2.47	–
FT3469 [4], 3000 nM	2.16	–
FT3469 [11], 4.1 nM	–	0.899
FT3469 [11], 12.3 nM	–	0.836
FT3469 [11], 37 nM	–	0.773
FT3469 [11], 111.1 nM	–	0.688
FT3469 [11], 333.3 nM	–	0.737
FT3469 [11], 1000 nM	–	0.697
FT3469 [11], 3000 nM	–	0.579

CN1C(=O)OC(C)(C)C1=O [Trimethadione]
Conditions	phenotypic distance	surviving fraction
E13 [5], 4.1 nM	0.619	–
E13 [5], 12.3 nM	0.485	–
E13 [5], 37 nM	0.498	–
E13 [5], 111.1 nM	0.332	–
E13 [5], 333.3 nM	0.419	–
E13 [5], 1000 nM	0.395	–
E13 [5], 3000 nM	0.509	–
E13 [12], 4.1 nM	–	0.872
E13 [12], 12.3 nM	–	1.05
E13 [12], 37 nM	–	0.904
E13 [12], 111.1 nM	–	0.943
E13 [12], 333.3 nM	–	0.94
E13 [12], 1000 nM	–	1.07
E13 [12], 3000 nM	–	0.9
E21 [1], 4.1 nM	0.779	–
E21 [1], 12.3 nM	0.495	–
E21 [1], 37 nM	0.506	–
E21 [1], 111.1 nM	0.324	–
E21 [1], 333.3 nM	0.36	–
E21 [1], 1000 nM	0.29	–
E21 [1], 3000 nM	0.461	–
E21 [8], 4.1 nM	–	0.949
E21 [8], 12.3 nM	–	1.02
E21 [8], 37 nM	–	0.937
E21 [8], 111.1 nM	–	1.05
E21 [8], 333.3 nM	–	1.01
E21 [8], 1000 nM	–	0.949
E21 [8], 3000 nM	–	1.03
E28 [3], 4.1 nM	0.624	–
E28 [3], 12.3 nM	0.657	–
E28 [3], 37 nM	0.665	–
E28 [3], 111.1 nM	0.367	–
E28 [3], 333.3 nM	0.471	–
E28 [3], 1000 nM	0.385	–
E28 [3], 3000 nM	0.844	–
E28 [10], 4.1 nM	–	0.994
E28 [10], 12.3 nM	–	1.14
E28 [10], 37 nM	–	0.959
E28 [10], 111.1 nM	–	1.03
E28 [10], 333.3 nM	–	1
E28 [10], 1000 nM	–	1
E28 [10], 3000 nM	–	0.903
E31 [2], 4.1 nM	0.578	–
E31 [2], 12.3 nM	0.705	–
E31 [2], 37 nM	0.678	–
E31 [2], 111.1 nM	0.582	–
E31 [2], 333.3 nM	0.402	–
E31 [2], 1000 nM	0.343	–
E31 [2], 3000 nM	0.599	–
E31 [9], 4.1 nM	–	0.999
E31 [9], 12.3 nM	–	1.03
E31 [9], 37 nM	–	0.936
E31 [9], 111.1 nM	–	1.15
E31 [9], 333.3 nM	–	1.04
E31 [9], 1000 nM	–	1.01
E31 [9], 3000 nM	–	0.759
E34 [6], 4.1 nM	0.536	–
E34 [6], 12.3 nM	0.379	–
E34 [6], 37 nM	0.464	–
E34 [6], 111.1 nM	1.03	–
E34 [6], 333.3 nM	0.604	–
E34 [6], 1000 nM	0.565	–
E34 [6], 3000 nM	0.885	–
E34 [13], 4.1 nM	–	1.12
E34 [13], 12.3 nM	–	1.04
E34 [13], 37 nM	–	1.04
E34 [13], 111.1 nM	–	0.867
E34 [13], 333.3 nM	–	0.972
E34 [13], 1000 nM	–	0.961
E34 [13], 3000 nM	–	0.86
E57 [7], 4.1 nM	0.62	–
E57 [7], 12.3 nM	0.587	–
E57 [7], 37 nM	0.572	–
E57 [7], 111.1 nM	0.439	–
E57 [7], 333.3 nM	0.455	–
E57 [7], 1000 nM	1.11	–
E57 [7], 3000 nM	0.844	–
E57 [14], 4.1 nM	–	1.11
E57 [14], 12.3 nM	–	0.909
E57 [14], 37 nM	–	1.04
E57 [14], 111.1 nM	–	1.04
E57 [14], 333.3 nM	–	1
E57 [14], 1000 nM	–	0.96
E57 [14], 3000 nM	–	0.885
FT3469 [4], 4.1 nM	0.493	–
FT3469 [4], 12.3 nM	0.946	–
FT3469 [4], 37 nM	0.598	–
FT3469 [4], 111.1 nM	0.319	–
FT3469 [4], 333.3 nM	0.852	–
FT3469 [4], 1000 nM	0.673	–
FT3469 [4], 3000 nM	0.994	–
FT3469 [11], 4.1 nM	–	1.05
FT3469 [11], 12.3 nM	–	0.973
FT3469 [11], 37 nM	–	0.987
FT3469 [11], 111.1 nM	–	1.03
FT3469 [11], 333.3 nM	–	0.983
FT3469 [11], 1000 nM	–	1.03
FT3469 [11], 3000 nM	–	0.855
